We go through one molecule from patent US20250304526A1, “HIGH AND MULTIPLE REDOX POTENTIAL, STABLE, AND SOLUBLE BIS-DIARYLAMINE DERIVATIVES AND USES THEREOF” (University of Kentucky Research Foundation, priority 2024, published 2025).

The series is described as follows: Solubility determination in pure acetonitrile by mass measurement. It counts as physicochemical. The procedure:
The solubility of the compounds in pure acetonitrile was determined by the mass measurement method described previously. Saturated solutions of each compound were prepared and filtered to remove any undissolved material. Afterwards, 3 mL of each solution were taken and added to previously weighed vials (the measurement was repeated three times for each solution, i.e. 3 vials for each solution). The vials were then stored open in a nitrogen-filled glove box to allow the slow evaporation of the solvent. After 10 days, acetonitrile was evaporated from all vials, leaving only the previously dissolved solid. The vials were then re-weighed and the mass of the solid was determined by subtracting the mass of the respective empty vial. The concentration of the compound was calculated from the mass of the dissolved solid and the volume of the sample placed into the vial.
The solubilities of 1-4 were examined in pure CH3CN using the mass measurement method.

Regarding `c1ccc(N(c2ccccc2)c2ccc(N(c3ccccc3)c3ccccc3)cc2)cc1` [A, N,N,N′,N′-Tetraphenyl-1,4-phenylenediamine, reference compound], the solubility result was “virtually insoluble”.
